Results as given in patent US20090162315A1 (priority 2004, published 2009).
Values joined by “and” are separate entries in the source; they are usually repeats but may differ in a detail not shown here. Equal values may be shown once.

Columns and labels:
[1] = tested on: T84 human colon-carcinoma cells; type: cell-based
[2] = tested on: T84 human colon-carcinoma cells; type: cell-based; remark: listed apart in the source
[3] = tested on: T84 human colon-carcinoma cells; type: cell-based; remark: listed apart in the source
patients with MPE = settings: in vivo; cited from earlier work

Question: Which “TER (Ω/cm^2)” value [1] does the source give for `N.N.[Cl][Pt][Cl]` [Cisplatin, cis-diaminodichloroplatinum] here?
Answer: The value was 800 Ω/cm^2 and 750 Ω/cm^2.

Question: And the “^51Cr-EDTA flux (nml · h · cm^2)” value [2]?
Answer: Its value is 2.8 nml · h · cm^2.

Question: And the “Δ Isc to CCh (μA/cm2)” value [3]?
Answer: Its value is 20 μA/cm2.

Question: And the “Δ Isc to Fsk (% of control)” value [3]?
Answer: Its value is 90 % of control.

Question: For Staphylococcal enterotoxin B [SEB], which “Δ Isc to CCh (μA/cm2)” value [3] is on record?
Answer: The value was 23 μA/cm2.

Question: And the “Δ Isc to Fsk (% of control)” value [3]?
Answer: Its value is 95 % of control.

Question: For bleomycin, which “Response rate in MPE” value (patients with MPE) is on record?
Answer: Its value is 50%.
